Reference: paper PMC4999862, “Site-specific Isopeptide Bridge Tethering of Chimeric gp41 N-terminal Heptad Repeat Helical Trimers for the Treatment of HIV-1 Infection” (Scientific Reports, 2016)
Read-outs that look alike come from different tables or passages of the source. Bridge positions count the residues as written; N and C are the ends. I, II: the chains in the order shown.

Legend:
[1] = in vitro; format: cell-based; details: human; uninfected MT-2 cells, XTT assay; read-out: CC50 (half maximal cytotoxic concentration)
Experimental: The cytotoxic effect of the compounds on MT-2 cells was determined using the XTT assay as described previously.

[2] = system: HIV-1 Env-mediated cell-cell fusion (HL2/3 effector cells, TZM-bl target cells); details: for EC50: read-out: EC50 (nM) for cell-cell fusion, HL2/3 effector + TZM-bl target cells, 6 h at 37 °C, luciferase read-out, mean ± SD of three independent experiments
Experimental: The inhibitory activities of these peptides on HIV-1 Env-mediated cell-cell fusion were determined as described previously. Effector cells were HL2/3 cells, which stably express HIV Gag, Env, Tat, Rev, and Nef proteins at the cell surface (contributed by Drs. Barbara Felber and George Pavlakis). TZM-bl cells, which express high levels of CD4 and coreceptors, were used as target cells (contributed by Drs. John C. Kappes and Xiaoyun Wu). HL2/3 cells and TZM-b1 cells were obtained from the NIH AIDS Reference and Reagent Program. TZM-bl cells (2.5 × 10^4/well) were plated in a 96-well plate (Corning Costar) and cultured overnight at 37 °C in 5% CO2. Thereafter, serially diluted inhibitors were added (20 μL/well), followed by the addition of HL2/3 cells (7.5 × 10^4/well). After incubation for 6 h at 37 °C in 5% CO2, fusion efficiency was determined by measuring the luciferase activity using the Luciferase Assay System (Promega, Madison, WI) on a SpectraMax M5 plate reader (Molecular Devices, Sunnyvale, CA).

[3] = biological target: T1, C34 (HIV-1 gp41 CHR peptide) (Human immunodeficiency virus type 1 group M subtype B, UniProt P04578); format: binding; details: CD, equimolar mixture 10 μM in PBS pH 7.4; θ222nm of 33000 for 100 % helicity
[4] = system: HIV-1 IIIB (subtypes B, X4)
Experimental: (§1) Briefly, 1 × 10^4 MT-2 cells were infected with an HIV-1 strain (100 times the half-maximal tissue culture infective dose) in 200 μL of culture medium with or without the serially diluted test compounds overnight. Assay plates were incubated for 72 h, after which 100 μL of culture supernatant was collected from each well and assayed for p24 antigen using ELISA as described previously. The EC50 value of each test compound was calculated using Calcusyn software.

[5] = system: HIV-1 BaL (subtypes B, R5)
Experimental: as §1

[6] = CD spectroscopy and thermal denaturation of chimeric N-trimers; format: physicochemical; details: for Tm (°C): CD thermal denaturation at 222 nm, 15 °C to 90 °C, PBS pH 7.4, 10 μM; for Helicity (%): CD, PBS pH 7.4, 10 μM peptide
Experimental: All measurements were performed on an MOS-450 system (BioLogic, Claix, France) at a 4.0 nm bandwidth, 0.1 nm resolution, 0.1 cm path length, 4.0 s response time and 50 nm/min scanning speed. The individual N- and C-peptides as well as their equimolar mixtures were prepared in PBS (pH 7.4) at a final concentration of 10 μM and incubated at 37 °C for 30 min. Thermal denaturation was monitored by the ellipticity change at 222 nm by application of a thermal gradient from 15 °C to 90 °C with a 2 °C interval.

[7] = Metabolic stability in kidney homogenate; format: in vitro ADME; details: rat kidney homogenate, 20 μM, reversed-phase HPLC, UV 210 nm
Experimental: (§2) Three male SD rats weighing approximately 200 g each were obtained from the Animal Center of Beijing Institute of Pharmacology & Toxicology and were used for the metabolic stability assay. Animals were treated in accordance with the Animal Welfare Act and the “Guide for the Care and Use of Laboratory Animals” (NIH Publication 86-23, revised 1985). Preparation of Samples.Calibration samples were prepared by mixing various concentrations of each test compound ranging from 4 to 150 μM in H2O with rat plasma or tissue homogenate at a volume ratio of 100 μL:100 μL (Supplementary Figs S5–S7). Each test sample (100 μL) was spiked with 100 μL of acetonitrile containing 0.1% TFA. The mixture was vortexed and centrifuged at 18,000 g for 10 min. Then, the supernatant was transferred to HPLC autosampler vials, and aliquots (10 μL) were injected into the HPLC system. […] The mobile phase was composed of solvent A (water containing 0.1% TFA) and solvent B (70% acetonitrile and 0.1% TFA). […] The HPLC analysis was performed on a Waters X-Bridge C8 column (4.6 × 250 mm, 5 μm, 300 Å) at ambient temperature upon injection of 20 μL of each standard and/or sample to obtain the chromatogram. The only exception was for (IZ14N24N)3 in plasma and kidney homogenate, which was analyzed using a Phenomenex Jupiter C4 column (4.6 × 250 mm, 5 μm, 300 Å).

[8] = biological target: T1, C34 (HIV-1 gp41 CHR peptide); assay: Native-PAGE of N-peptides, C34 and their complexes; format: binding; details: equimolar mixture with C34, 37 °C 30 min, PBS pH 7.2, 12% Tris-glycine gel, Coomassie
Experimental: Equimolar mixtures of C34 and N-peptides (80 μM in PBS, pH 7.2) were incubated at 37 °C for 30 min. After mixing with 1: 1 Tris-glycine native sample buffer (BioRad, Hercules, CA), the individual N- and C- peptides and the mixture (40 μM in PBS, pH 7.2) were loaded (25 μL in each well) onto 12% Tris-glycine gels. Gel electrophoresis was run under a constant voltage of 120 V at room temperature for 2.5 h. The gel was then stained with Coomassie blue R250.

[9] = Metabolic stability in liver homogenate; format: in vitro ADME; details: rat liver homogenate, 20 μM, reversed-phase HPLC, UV 210 nm
Experimental: as §2

[10] = system: T20-sensitive and -resistant HIV-1 NL4-3 strains; details: read-out: EC50 values against both T20-sensitive and -resistant strains; range over the six NL4-3 strains of Table 2
Experimental: as §1

[11] = system: HIV-1NL4-3(D36G); details: read-out: EC50 against NL4-3 D36G; T20-sensitive strain; MT-2 cells, p24 ELISA; mean ± SD of three independent experiments
Experimental: as §1

[12] = system: NL4-3 mutant (36G)V38A/N42D; details: read-out: EC50 against NL4-3 (36G)V38A/N42D; T20-resistant strain; MT-2 cells, p24 ELISA; mean ± SD of three independent experiments
Experimental: as §1

[13] = system: NL4-3 mutant (36G)N42T/N43K; details: read-out: EC50 against NL4-3 (36G)N42T/N43K; T20-resistant strain; MT-2 cells, p24 ELISA; mean ± SD of three independent experiments
Experimental: as §1

[14] = system: NL4-3 mutant (36G)V38A/N42T; details: read-out: EC50 against NL4-3 (36G)V38A/N42T; T20-resistant strain; MT-2 cells, p24 ELISA; mean ± SD of three independent experiments
Experimental: as §1

[15] = system: NL4-3 mutant (36G)V38A; details: read-out: EC50 against NL4-3 (36G)V38A; T20-resistant strain; MT-2 cells, p24 ELISA; mean ± SD of three independent experiments
Experimental: as §1

[16] = system: NL4-3 mutant (36G)V38E/N42S; details: read-out: EC50 against NL4-3 (36G)V38E/N42S; T20-resistant strain; MT-2 cells, p24 ELISA; mean ± SD of three independent experiments
Experimental: as §1

[17] = read-out: EC50 (nM) for inhibition HIV-1IIIB replication, MT-2 cells, 100 TCID50, 72 h, p24 ELISA, mean ± SD of three independent experiments
[18] = read-out: EC50 (nM) for inhibition HIV-1BaL replication, 100 TCID50, 72 h, p24 ELISA, mean ± SD of three independent experiments

T1 sequence (P04578 628-661): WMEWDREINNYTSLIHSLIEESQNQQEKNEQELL

Substance | CC50 [1] | EC50 [2] | Helicity (%) of the 6HBs formed between chimeric N-peptides and C34 [3] | EC50 [4, 17] | EC50 [5, 18] | Tm (°C) [6] | Helicity (%) [6] | other results
I: Ac-IKKKIEAIEKLLQLTVWGIKQLQARILAVERYLK-NH2 / II: Ac-IKKKIEAIEKLLQLTVWGIKQLQARILAVERYLK-NH2 / III: Ac-IKKKIEAIEKLLQLTVWGIKQLQARILAVERYLK-NH2 (amide I:4-II:9, I:9-III:4, II:4-III:9) [(IZ10N24C)3] | 2000 ± 400 nM | 13.8 ± 1.5 nM | 63% | 4.4 ± 0.4 nM | 11.4 ± 5.5 nM | > 90 °C | 100% | –
I: Ac-EQEAIKKKIEAIEKAIEAQQHLLQLTVWGIKQLQARIL-NH2 / II: Ac-EQEAIKKKIEAIEKAIEAQQHLLQLTVWGIKQLQARIL-NH2 / III: Ac-EQEAIKKKIEAIEKAIEAQQHLLQLTVWGIKQLQARIL-NH2 (amide I:8-III:13, I:13-II:8, II:13-III:8) [(IZ14N24N)3] | > 20000 nM | 2.79 ± 0.1 nM | 87% | 0.4 ± 0.01 nM | 3.2 ± 0.9 nM | > 90 °C | 100% | stability in kidney homogenate for 24 h [7]: highly stable; fold greater cell-cell fusion inhibitory activity than (IZ14N17)3 ([2]; relative to (IZ14N17)3): about 8 fold; complex formation with C34 in N-PAGE [8]: form a stable complex with C34; stability in liver homogenate for 24 h [9]: highly stable; EC50 [10]: 0.7 to 3.3 nM; EC50 [11]: 1.3 ± 0.2 nM; EC50 [12]: 2.7 ± 0.1 nM; EC50 [13]: 3.3 ± 0.1 nM; EC50 [14]: 1.3 ± 0.8 nM; EC50 [15]: 0.7 ± 0.1 nM; EC50 [16]: 1.2 ± 0.2 nM
I: Ac-EQEAIKKKIEAIEKLLQLTVWGIKQLQARIL-NH2 / II: Ac-EQEAIKKKIEAIEKLLQLTVWGIKQLQARIL-NH2 / III: Ac-EQEAIKKKIEAIEKLLQLTVWGIKQLQARIL-NH2 (amide I:8-III:13, I:13-II:8, II:13-III:8) [(IZ14N17)3] | 7300 ± 1700 nM | 21.9 ± 2.4 nM | 74% | 1.9 ± 1.2 nM | 3.3 ± 2 nM | > 90 °C | 100% | –
I: Ac-IKKEQEAIKKKIEAIEKLLQLTVWGIKQLQARIL-NH2 / II: Ac-IKKEQEAIKKKIEAIEKLLQLTVWGIKQLQARIL-NH2 / III: Ac-IKKEQEAIKKKIEAIEKLLQLTVWGIKQLQARIL-NH2 (amide I:11-II:16, I:16-III:11, II:11-III:16) [(IZ17N17)3] | 4000 ± 300 nM | 46 ± 4.6 nM | 70% | 4.1 ± 3.1 nM | 9 ± 0.2 nM | > 90 °C | 98% | –
Enfuvirtide | – | – | – | – | – | – | – | EC50 ([4]; IIIB (subtypes B, X4, 72 h)): 4.9 ± 0.6 nM; EC50 ([5]; BaL (subtypes B, R5, 72 h)): 25.2 ± 1.9 nM
I: Ac-IKKKIEAIEKLLQLTVWGIKQLQARIL-NH2 / II: Ac-IKKKIEAIEKLLQLTVWGIKQLQARIL-NH2 / III: Ac-IKKKIEAIEKLLQLTVWGIKQLQARIL-NH2 (amide I:4-II:9, I:9-III:4, II:4-III:9) [(IZ10N17)3] | 2000 ± 200 nM | 190 ± 4.6 nM | 73% | 59.4 ± 9.1 nM | 74.7 ± 6 nM | > 90 °C | 75% | fold less potency than (IZN17R)3 in cell-cell fusion ([2]; relative to (IZN17R)3): 17 fold; complex formation with C34 in N-PAGE [8]: two bands with nearly the same density
I: Ac-EQEAIKKKIEAIEKLLQLTVWGIKQLQARILAVERYLK-NH2 / II: Ac-EQEAIKKKIEAIEKLLQLTVWGIKQLQARILAVERYLK-NH2 / III: Ac-EQEAIKKKIEAIEKLLQLTVWGIKQLQARILAVERYLK-NH2 (amide I:8-III:13, I:13-II:8, II:13-III:8) [(IZ14N24C)3] | 7700 ± 800 nM | 6.4 ± 1.6 nM | 76% | 4 ± 2.3 nM | 6.6 ± 0.2 nM | > 90 °C | 100% | –
I: Ac-IKKKIEAIEKAIEAQQHLLQLTVWGIKQLQARIL-NH2 / II: Ac-IKKKIEAIEKAIEAQQHLLQLTVWGIKQLQARIL-NH2 / III: Ac-IKKKIEAIEKAIEAQQHLLQLTVWGIKQLQARIL-NH2 (amide I:4-II:9, I:9-III:4, II:4-III:9) [(IZ10N24N)3] | 6900 ± 1000 nM | 28.3 ± 4.3 nM | 80% | 1.8 ± 0.7 nM | 4.7 ± 0.5 nM | > 90 °C | 100% | –
